The values below come from PMC7595202, “Indole hydrazide compound ZJQ-24 inhibits angiogenesis and induces apoptosis cell death through abrogation of AKT/mTOR pathway in hepatocellular carcinoma” (Cell Death & Disease, 2020).

For the assay, the target named is mTOR (Homo sapiens, UniProt P42345). Nature of the assay: in vitro kinase activity assay at ATP near Km; also anti-Raptor immunoprecipitated mTORC1 kinase assay (HepG2/HUH-7) with GST-S6K1 substrate. The class given is biochemical.

Each structure is given as a SMILES string. pEC50: −log10 of the molar value.

For the molecule `COc1ccc(C=NNC(=O)c2cc3cc(Cl)ccc3[nH]2)c(OC)c1` [ZJQ-24, 5-chloro-N’-(2,4-dimethoxybenzylidene)−1H-indole-2-carbohydrazide], the pEC50 (usually the negative decadic logarithm of the EC50, by convention in mol/L) is 4.39.
